Laboratory results reported in patent US6998404B2, “Treatment or prevention of acute renal failure” (priority 2001, dated 2006).
Where two headings read alike, the source gives them in different places.

Assays:
[1] = radiocontrast nephropathy, impaired renal excretory, endocrine and tubular function, cited from earlier work
[2] = treatment of oliguric prerenal acute renal failure, need for dialysis; format: in vivo, human; conditions: patients with acute renal failure progressed to oliguria (less than 300 ml urine output per day)
Source text: Adenosine receptor antagonists, especially aminophyllline, are used to treat or prevent acute renal failure. Adenosine antagonists are suited for prerenal acute renal failure only.

[3] = rat, glycerol-induced ARF, IV, administered before the toxic insult; cited from earlier work
[4] = human trials, radio-contrast renal injury, IV, administered before the toxic insult; cited from earlier work
[5] = patients, aminophylline toxicity; cited from earlier work
[6] = cyclosporin-A-induced renal failure with renal vasoconstriction; cited from earlier work

Cn1c(=O)c2[nH]cnc2n(C)c1=O [Theophyllin E]
protective role in preventing RCN [1]: effective in preventing RCN impaired renal excretory, endocrine and tubular function

Cn1c(=O)c2[nH]cnc2n(C)c1=O [aminophylline]
patients in whom the need for dialysis is obviated [2]: over 50%
protective role in preventing RCN ([1]; listed as Aminophylline): does not appear to add a protective role in preventing RCN
prevention of ARF [3]: dramatic in preventing ARF
prevention of ARF [4]: dramatic in preventing ARF
serum theophylline level at which nausea and vomiting usually occur [5]: around 20 micrograms/ml

Cn1c(=O)c2[nH]cnc2n(C)c1=O [theophylline]
restoration of renal function [6]: restored renal function significantly
